Experimental data: PubChem BioAssay (NCI)
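Step 1: Grow cells in 96-well plates. Step 2: Expose to compound for 48 hours at 5 concentrations. Step 3: Interpolate endpoints linearly; if unreached, use highest concentration. TGI: total growth inhibition.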

Tests used:
Test in all cases: NCI anticancer screen, dose series, 48 h
[1] = system: MALME-3M melanoma
[2] = system: SF-268 CNS
[3] = system: SW-620 colon
[4] = system: DMS 114 small cell lung
[5] = system: SK-MEL-2 melanoma
[6] = system: IGROV1 ovarian
[7] = system: OVCAR-3 ovarian
[8] = system: OVCAR-4 ovarian
[9] = system: TK-10 renal
[10] = system: DLD-1 colon
[11] = system: LXFL 529 NSCLC
[12] = system: UO-31 renal
[13] = system: A498 renal
[14] = system: LOX IMVI melanoma
[15] = system: SN12C renal
[16] = system: NCI-H522 lung
[17] = system: SNB-19 CNS
[18] = system: SF-539 CNS
[19] = system: HT29 colon
[20] = system: NCI-H460 lung
[21] = system: A549 NSCLC
[22] = system: SK-OV-3 ovarian
[23] = system: MOLT-4 leukemia
[24] = system: CCRF-CEM leukemia
[25] = system: KM12 colon
[26] = system: NCI-H23 lung
[27] = system: K-562 leukemia
[28] = system: RXF 393 renal
[29] = system: OVCAR-8 ovarian
[30] = system: DMS 273 small cell lung
[31] = system: NCI-H226 lung
[32] = system: UACC-257 melanoma
[33] = system: HL-60(TB) leukemia
[34] = system: SNB-75 CNS
[35] = system: SNB-78 CNS
[36] = system: U251 CNS
[37] = system: SF-295 CNS
[38] = system: ACHN renal
[39] = system: UACC-62 melanoma
[40] = system: HCT-116 colon
[41] = system: SK-MEL-5 melanoma
[42] = system: HCT-15 colon
[43] = system: SK-MEL-28 melanoma
[44] = system: NCI/ADR-RES ovarian
[45] = system: 786-0 renal
[46] = system: OVCAR-5 ovarian
[47] = system: T-47D breast
[48] = system: MCF7 breast
[49] = system: MDA-N
[50] = system: MDA-MB-231 breast
[51] = system: HCC-2998 colon
[52] = system: PC-3 prostate
[53] = system: MDA-MB-435
[54] = system: BT-549 breast
[55] = system: HOP-62 NSCLC
[56] = system: DU-145 prostate
[57] = system: HS 578T breast
[58] = system: M14 melanoma
[59] = system: CAKI-1 renal
[60] = system: EKVX NSCLC
[61] = system: RPMI-8226 leukemia
[62] = system: COLO 205 colon
[63] = system: HOP-92 NSCLC
[64] = system: SR leukemia

Measured: TGI

O=Cc1ccccc1CCn1c(=O)c2cc3c(=O)n(CCc4ccccc4C=O)c(=O)c3cc2c1=O
not listed: [44] | [45] | [46] | [47] | [48] | [49] | [50] | [51] | [52] | [53] | [54] | [55] | [56] | [57] | [58] | [59] | [60] | [61] | [62] | [63] | [64]
> 100 µM: all other assays above

c1ccc(SCCc2ccncc2)cc1
not listed: [4] | [10] | [11] | [30] | [35]
> 100 µM: all other assays above
